From BigSolDB 2.1

CSc1nc2cc(Oc3cccc(Cl)c3Cl)c(Cl)cc2[nH]1
solubility (mole fraction)
Conditions | 278.15 K | 283.15 K | 288.15 K | 293.15 K | 298.15 K | 303.15 K | 308.15 K | 313.15 K | 318.15 K
in 1,2-dichloroethane | 0.00153 | 0.00187 | 0.00234 | 0.00289 | 0.00365 | 0.00429 | 0.00522 | 0.0063 | 0.00759
in acetonitrile | 0.000629 | 0.000811 | 0.00106 | 0.00136 | 0.00164 | 0.00213 | 0.00264 | 0.0032 | 0.00396
in ethanol | 0.00727 | 0.00878 | 0.0105 | 0.0126 | 0.0151 | 0.0181 | 0.0209 | 0.0244 | 0.0288
in ethyl acetate | 0.0106 | 0.0125 | 0.0147 | 0.0173 | 0.0198 | 0.0232 | 0.0262 | 0.0306 | 0.0354
in ethyl formate | 0.00501 | 0.00632 | 0.00795 | 0.00982 | 0.0121 | 0.0149 | 0.0177 | 0.0215 | 0.0258
in ethylene glycol | 0.000323 | 0.000439 | 0.00057 | 0.000714 | 0.000934 | 0.0012 | 0.00152 | 0.00188 | 0.00231
in isobutanol | 0.00455 | 0.00558 | 0.00698 | 0.00859 | 0.0109 | 0.0132 | 0.0161 | 0.0194 | 0.023
in isopropanol | 0.00215 | 0.00272 | 0.00337 | 0.00411 | 0.00511 | 0.00619 | 0.00757 | 0.00914 | 0.0112
in methanol | 0.00373 | 0.00458 | 0.00565 | 0.00691 | 0.00841 | 0.0101 | 0.0121 | 0.0144 | 0.017
in n-butanol | 0.0221 | 0.0246 | 0.0273 | 0.0302 | 0.0333 | 0.0366 | 0.0399 | 0.0435 | 0.0473
in n-butyl acetate | 0.0159 | 0.0181 | 0.0207 | 0.0232 | 0.0263 | 0.0298 | 0.0334 | 0.0372 | 0.0423
in n-pentyl acetate | 0.0185 | 0.0214 | 0.0241 | 0.0277 | 0.0319 | 0.0361 | 0.0407 | 0.0453 | 0.0511
in n-propanol | 0.00915 | 0.0108 | 0.0125 | 0.0146 | 0.017 | 0.0198 | 0.0229 | 0.0262 | 0.0301
in n-propyl acetate | 0.0124 | 0.0146 | 0.017 | 0.0196 | 0.0228 | 0.0258 | 0.0299 | 0.0338 | 0.039
